Laboratory results reported in PMC9923736, “Optimized Ebselen-Based Inhibitors of Bacterial Ureases with Nontypical Mode of Action” (Journal of Medicinal Chemistry, 2023).

Columns and labels:
glutamate dehydrogenase = settings: cited from earlier work
antigen 85 complex = antigen 85 complex of Mycobacterium tuberculosis; cited from earlier work
histone deacetylases = target: histone deacetylases; design: method as in PMID 22047054; settings: cited from earlier work
[1] = test system: urease in living cells of P. mirabilis PCM 543; test: Inhibition of ureolysis in whole P. mirabilis cells in PBS buffer (nongrowth conditions); settings: Proteus mirabilis, read-out: IC50 (PBS buffer)
[2] = target: bacterial thioredoxin reductase, Bacillus anthracis; settings: cited from earlier work
[3] = target: methionine aminopeptidase 2; settings: cited from earlier work
[4] = target: Sporosarcina pasteurii urease (Sporosarcina pasteurii, UniProt P41020); test: Inhibition of purified S. pasteurii urease (Ki; phenol-hypochlorite/Berthelot ammonia assay); format: biochemical; settings: for mechanism of inhibition: S. pasteurii urease, Lineweaver-Burk plots / reaction progress curves
Sporosarcina pasteurii urease, sequence (P41020 whole entry, looked up): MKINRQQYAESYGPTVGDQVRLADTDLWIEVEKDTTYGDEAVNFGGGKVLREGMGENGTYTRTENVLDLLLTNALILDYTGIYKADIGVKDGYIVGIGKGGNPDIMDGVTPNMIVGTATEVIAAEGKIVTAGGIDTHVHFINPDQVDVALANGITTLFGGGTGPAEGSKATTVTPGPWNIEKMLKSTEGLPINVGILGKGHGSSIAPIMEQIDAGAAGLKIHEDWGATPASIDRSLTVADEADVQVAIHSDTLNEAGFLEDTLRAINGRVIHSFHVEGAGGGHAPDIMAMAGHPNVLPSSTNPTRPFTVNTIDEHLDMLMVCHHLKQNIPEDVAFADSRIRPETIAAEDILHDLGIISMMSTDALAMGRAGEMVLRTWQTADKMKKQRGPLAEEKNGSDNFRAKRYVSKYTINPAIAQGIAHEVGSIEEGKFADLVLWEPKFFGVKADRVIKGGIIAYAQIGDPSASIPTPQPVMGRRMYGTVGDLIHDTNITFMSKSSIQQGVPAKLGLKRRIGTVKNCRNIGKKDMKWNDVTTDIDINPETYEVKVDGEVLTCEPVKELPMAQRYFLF
Description: The values of kinetic parameters ( and KM
vmax) of the purified enzyme were determined by fitting the initial reaction velocities measured in a range of urea concentrations to the Michaelis-Menten equation by nonlinear regression. The values […]
Enzymatic reactions were carried out in 3 mM phosphate buffer pH 7.5 at 37 °C. The kinetic parameters of urease in the noninhibited reaction ( and ) were obtained by measuring the Kmvmax […]
activity was defined as the amount of enzyme required to produce 1 µM ammonia per min under […]
S2.1. Inhibition studies.
S. pasteuriipM urease in assay mixtures (200 μL total volume) containing increasing concentrations […]
The values were calculated using the appropriate equations in Ki the GraphPad Prism 5 software. The inhibition mechanism was determined using Lineweaver-Burk plots after testing at least five inhibitor concentrations in the range depending on their inhibitory strength (exemplified in Figure S26).
S2.2. Inhibition studies. […]
and 52), ammonia concentration versus time, for urea hydrolysis catalyzed by S. pasteurii urease in the absence and presence of inhibitors were performed in standard assay mixtures at a single urea concentration (final concentration 25 mM) and at different inhibitor concentrations according to their inhibitory strength. Enzymatic hydrolysis of urea was initiated by adding […] of urease solution […]
min in samples taken from reaction mixtures at set time intervals. The reaction mixtures were stirred throughout the measurement period. The nonlinear reaction progress curves with time-dependent inhibitors of urease (for the nonincubated reaction and under conditions: [I]0 ≫ [E] 0) were described using the integrated equation: , (where is the concentration [P]=vt+(v+v)(1―e―kappt)1P […]
of the reaction product formed at time t, which is the reaction time, and are the reaction initial vivs and steady-state rates, respectively, and is the apparent first-order rate constant for the kapp interconversion between and ). […] The vivs […]
equilibrium dissociation constants of the initial and the final enzyme conformation complex EI EI ∗ […]
is the Michaelis-Menten constant, maximum rate of enzyme in a noninhibited reaction, vmax S and I are substrate and inhibitor concentration). The mechanism of inhibitor binding was determined using steady-state kinetic measurements (Figures S27 and S28). […]
pM) was pre-incubated with increasing inhibitor concentrations in separate aliquots of reaction buffer prior to the initiation of the reaction by urea incorporation at a concentration ranging from 1 to 60 mM. The incubation time was different for the assayed inhibitors, depending on when equilibrium was achieved between enzyme , inhibitor and enzyme-inhibitor complexes ( and : (E)(I)EI EI ∗ E + I ↔EI ↔ EI ∗ ) . The values were calculated using the appropriate equations implemented in Ki the GraphPad Prism 5 software. The inhibitors were dissolved in water or DMF (the solvent was […]
Urease activity was determined using the […]
run in triplicate for the compounds analyzed.

[5] = test system: urease in living cells of P. mirabilis PCM 543; test: Inhibition of ureolysis in whole P. mirabilis cells in artificial urine model; settings: Proteus mirabilis, read-out: IC90 (urine model)

Structure (SMILES) | IC50 [1] | Ki [4] | IC90 [5] | also measured
O=c1c2ccccc2[se]n1-c1ccccc1 [compound 1, 2-phenyl-1,2-benzisoselenazol-3(2H)-one] | 29.2 ± 3.1 nM |  |  | IC50 (glutamate dehydrogenase): 360 nM; Ki (antigen 85 complex): 63 nM; Ki (histone deacetylases): 80 to 4420 nM; IC50 [2]: 1000 nM; IC50 [3]: 2430 nM
Cc1ccccc1-n1[se]c2ccccc2c1=O [compound 30, 2-(2-Methylphenyl)-1,2-benzisoselenazol-3(2H)-one] | 25 ± 2 nM | 3.56 ± 0.32 nM | 121 ± 13 nM | 
O=c1c2ccccc2[se]n1-c1ccccc1F [compound 31, 2-(2-Fluorophenyl)-1,2-benzisoselenazol-3(2H)-one] | 7.48 ± 0.67 nM | 0.974 ± 0.089 nM | 34.7 ± 2.7 nM | 
O=c1c2ccccc2[se]n1-c1ccccc1Cl [compound 32, 2-(2-Chlorophenyl)-1,2-benzisoselenazol-3(2H)-one] | 13.6 ± 1.5 nM | 13.7 ± 0.96 nM | 87.7 ± 8.3 nM | 
O=c1c2ccccc2[se]n1-c1ccccc1Br [compound 33, 2-(2-Bromophenyl)-1,2-benzisoselenazol-3(2H)-one] | 26.9 ± 2.8 nM | 6.79 ± 0.53 nM | 543 ± 26 nM | 
O=c1c2ccccc2[se]n1-c1ccccc1O [compound 34, 2-(2-Hydroxyphenyl)-1,2-benzisoselenazol-3(2H)-one] | 16.8 ± 1.4 nM | 1.42 ± 0.14 nM | 148 ± 6 nM | 
COc1ccccc1-n1[se]c2ccccc2c1=O [compound 35, 2-(2-Methoxyphenyl)-1,2-benzisoselenazol-3(2H)-one] | 4.19 ± 0.45 nM | 5.36 ± 0.43 nM | 18.8 ± 2.4 nM | 
O=c1c2ccccc2[se]n1-c1cccc(F)c1 [compound 36, 2-(3-Fluorophenyl)-1,2-benzisoselenazol-3(2H)-one] | 8.86 ± 0.81 nM | 1.89 ± 0.16 nM | 223 ± 17 nM | 
COc1cccc(-n2[se]c3ccccc3c2=O)c1 [compound 37, 2-(3-Methoxyphenyl)-1,2-benzisoselenazol-3(2H)-one] | 11.5 ± 1.3 nM | 1.07 ± 0.08 nM | 53.8 ± 3.7 nM | mechanism of inhibition [4]: Slow binding inhibition
Cc1ccc(-n2[se]c3ccccc3c2=O)cc1 [compound 38, 2-(4-Methylphenyl)-1,2-benzisoselenazol-3(2H)-one] |  | 4.04 ± 0.32 nM |  | 
O=c1c2ccccc2[se]n1-c1ccc(F)cc1 [compound 39, 2-(4-Fluorophenyl)-1,2-benzisoselenazol-3(2H)-one] | 12.1 ± 1.4 nM | 24.1 ± 2.6 nM | 145 ± 17 nM | 
O=c1c2ccccc2[se]n1-c1ccc(C(F)(F)F)cc1 [compound 40, 2-(4-Trifluoromethylphenyl)-1,2-benzisoselenazol-3(2H)-one] | 16 ± 1.3 nM | 0.0363 ± 0.0039 nM | 100 ± 14 nM | 
COc1ccc(-n2[se]c3ccccc3c2=O)cc1 [compound 41, 2-(4-Methoxyphenyl)-1,2-benzisoselenazol-3(2H)-one] | 15.9 ± 1.1 nM | 44 ± 4.2 nM | 180 ± 10 nM | 
CCCCOc1ccc(-n2[se]c3ccccc3c2=O)cc1 [compound 42, 2-(4-n-Butoxyphenyl)-1,2-benzisoselenazol-3(2H)-one] | 32.2 ± 3.8 nM | 1.78 ± 0.18 nM | 224 ± 15 nM | mechanism of inhibition [4]: Slow binding inhibition
COc1ccc(-n2[se]c3ccccc3c2=O)c(C)c1 [compound 43, 2-(4-Methoxy-2-methylphenyl)-1,2-benzisoselenazol-3(2H)-one] | 25.1 ± 2 nM | 7.3 ± 0.56 nM | 148 ± 10 nM | mechanism of inhibition [4]: Slow binding inhibition
O=c1c2ccccc2[se]n1-c1ccc(F)cc1F [compound 44, 2-(2,4-Difluorophenyl)-1,2-benzisoselenazol-3(2H)-one] | 17 ± 1.8 nM | 0.0167 ± 0.0017 nM | 130 ± 16 nM | 
Cc1ccc(-n2[se]c3ccccc3c2=O)c(Cl)c1 [compound 46, 2-(2-Chloro-4-methylphenyl)-1,2-benzisoselenazol-3(2H)-one] | 20 ± 1.7 nM | 3.26 ± 0.23 nM | 176 ± 12 nM | 
O=c1c2ccccc2[se]n1-c1ccc(F)cc1Cl [compound 47, 2-(2-Chloro-4-fluorophenyl)-1,2-benzisoselenazol-3(2H)-one] | 22.7 ± 2.5 nM | 0.0058 ± 0.0004 nM | 126 ± 8 nM | 
Cc1ccc(Cl)cc1-n1[se]c2ccccc2c1=O [compound 48, 2-(5-Chloro-2-methylphenyl)-1,2-benzisoselenazol-3(2H)-one] |  | 75.2 ± 6.2 nM |  | 
O=c1c2ccccc2[se]n1-c1cc(Cl)ccc1F [compound 49, 2-(5-Chloro-2-fluorophenyl)-1,2-benzisoselenazol-3(2H)-one] | 11.8 ± 1 nM | 0.0135 ± 0.0014 nM | 151 ± 20 nM | 
Cc1ccc(Cl)c(-n2[se]c3ccccc3c2=O)c1 [compound 50, 2-(2-Chloro-5-methylphenyl)-1,2-benzisoselenazol-3(2H)-one] | 54 ± 2.7 nM | 1.63 ± 0.13 nM | 243 ± 17 nM | 
O=c1c2ccccc2[se]n1-c1cc(Cl)ccc1Cl [compound 51, 2-(2,5-Dichlorophenyl)-1,2-benzisoselenazol-3(2H)-one] | 21.2 ± 1.5 nM | 0.00885 nM | 254 ± 14 nM | 
COc1ccc(C)cc1-n1[se]c2ccccc2c1=O [compound 52, 2-(2-Methoxy-5-methylphenyl)-1,2-benzisoselenazol-3(2H)-one] | 11.8 ± 1.6 nM | 7.11 ± 0.56 nM | 96.6 ± 8.1 nM | mechanism of inhibition [4]: Slow binding inhibition
COc1ccc(Cl)cc1-n1[se]c2ccccc2c1=O [compound 53, 2-(5-Chloro-2-methoxyphenyl)-1,2-benzisoselenazol-3(2H)-one] | 21.9 ± 1.7 nM | 1.63 ± 0.12 nM | 82.2 ± 11.3 nM | 
Cc1cc(-n2[se]c3ccccc3c2=O)ccc1Cl [compound 54, 2-(4-Chloro-3-methylphenyl)-1,2-benzisoselenazol-3(2H)-one] | 23.8 ± 2 nM | 2.45 ± 0.16 nM | 124 ± 14 nM | 
